Reference: publication PMC8286840, “Identifying SARS-CoV-2 antiviral compounds by screening for small molecule inhibitors of Nsp3 papain-like protease” (Biochemical Journal, 2021)
Counter-ions that a name gives are not always drawn. Like-named read-outs stand apart in the source and are kept apart here.

Legend:
[1] = biological target: T1, SARS-CoV-2 PLpro (nsp3 1564–1878) (Severe acute respiratory syndrome coronavirus 2, UniProt P0DTD1); assay: biochemical; parameters: FRET-quenched peptide (Pro3) cleavage by PLpro, 10 min pre-incubation, slope over 20 min, normalised to no-compound control; conditions: low concentration screen, read-out: % of control remaining
[2] = biological target: T1, SARS-CoV-2 PLpro (nsp3 1564–1878); assay: biochemical; parameters: FRET-quenched peptide (Pro3) cleavage by PLpro, 10 min pre-incubation, slope over 20 min, normalised to no-compound control; conditions: high concentration screen, read-out: % of control remaining

CC(C[N+](C)(C)C)OC(N)=O (stereo not drawn) [Bethanechol chloride]
remaining activity at 1.25 µM ([1]; Well no.=322): 102% | remaining activity at 3.75 µM ([2]; Well no.=322): 102%

CCCCC/C=C\C/C=C\C/C=C\CCCCC(=O)O [6(Z), 9(Z), 12(Z)-Octadecatrienoic Acid]
remaining activity at 1.25 µM ([1]; Well no.=4360): 107% | remaining activity at 3.75 µM ([2]; Well no.=4360): 107%

CC(C)C(O)C(=O)O (stereo not drawn) [2-Hydroxy-3-methylbutanoic acid]
remaining activity at 1.25 µM ([1]; Well no.=7503): 101% | remaining activity at 3.75 µM ([2]; Well no.=7503): 98.9%

O=c1cc[nH]c(=O)[nH]1 [Uracil]
remaining activity at 1.25 µM ([1]; Well no.=7023): 103% | remaining activity at 3.75 µM ([2]; Well no.=7023): 102%

Cc1ccc(NC(=O)c2cccc(C(C)(C)C#N)c2)cc1Nc1ccc2ncn(C)c(=O)c2c1 [AZ628]
remaining activity at 1.25 µM ([1]; Well no.=5037): 88.5% | remaining activity at 3.75 µM ([2]; Well no.=5037): 94.3%

CC1(C)S[C@@H]2[C@H](NC(=O)[C@H](N)c3ccc(O)cc3)C(=O)N2[C@H]1C(=O)O [Amoxicillin (trihydrate)]
remaining activity at 1.25 µM ([1]; Well no.=8222): 99.5% | remaining activity at 3.75 µM ([2]; Well no.=8222): 96.8%

COc1ccc2c(c1)C(=O)N(CCc1ccc(S(=O)(=O)NC(=O)NC3CCCCC3)cc1)C(=O)C2(C)C [Gliquidone]
remaining activity at 1.25 µM ([1]; Well no.=5369): 97.2% | remaining activity at 3.75 µM ([2]; Well no.=5369): 95.2%

CN(C)[C@@H]1C(O)=C(C(N)=O)C(=O)[C@@]2(O)C(O)=C3C(=O)c4c(O)ccc(Cl)c4[C@@H](O)[C@H]3C[C@@H]12 [Demeclocycline hydrochloride]
remaining activity at 1.25 µM ([1]; Well no.=484): 99.1% | remaining activity at 3.75 µM ([2]; Well no.=484): 96.9%

CN(C)CCCN1c2ccccc2Sc2ccc(Cl)cc21 [Chlorpromazine (hydrochloride)]
remaining activity at 1.25 µM ([1]; Well no.=6227): 95.8% | remaining activity at 3.75 µM ([2]; Well no.=6227): 96.3%

CCOCc1cc(OC)c(-c2ccc(C[C@H](NC(=O)c3c(F)cccc3F)C(=O)O)cc2)c(OC)c1 [Firategrast]
remaining activity at 1.25 µM ([1]; Well no.=7930): 103% | remaining activity at 3.75 µM ([2]; Well no.=7930): 99%

O=C(NCCS(=O)(=O)c1ccc(C(F)(F)F)cn1)c1ccc(Cl)cc1 [GSK3787]
remaining activity at 1.25 µM ([1]; Well no.=5216): 91.7% | remaining activity at 3.75 µM ([2]; Well no.=5216): 95.3%

O=c1cc(-c2ccccc2)oc2ccc(O)cc12 [6-Hydroxyflavone (6-HF)]
remaining activity at 1.25 µM ([1]; Well no.=8104): 98.9% | remaining activity at 3.75 µM ([2]; Well no.=8104): 98.5%

COc1ccc2[nH]c(I)c(CCNC(C)=O)c2c1 [2-Iodomelatonin]
remaining activity at 1.25 µM ([1]; Well no.=622): 99.9% | remaining activity at 3.75 µM ([2]; Well no.=622): 99.7%

Cc1cccc(N(C)C(=S)Oc2ccc3ccccc3c2)c1 [Tolnaftate]
remaining activity at 1.25 µM ([1]; Well no.=4720): 105% | remaining activity at 3.75 µM ([2]; Well no.=4720): 106%

CC1(C)CCC2=C(O1)c1ccccc1C(=O)C2=O
remaining activity at 1.25 µM ([1]; Well no.=3375): 95.6% | remaining activity at 1.25 µM ([1]; Well no.=3845): 96.1% | remaining activity at 3.75 µM ([2]; Well no.=3375): 84.1% | remaining activity at 3.75 µM ([2]; Well no.=3845): 91.8%

OC[C@H]1O[C@@H](O[C@@H]2OC=C[C@H]3[C@H](O)[C@@H]4O[C@]4(CO)[C@@H]23)[C@H](O)[C@@H](O)[C@@H]1O [Catalpol]
remaining activity at 1.25 µM ([1]; Well no.=3274): 102% | remaining activity at 3.75 µM ([2]; Well no.=3274): 103%

NCCNc1ncc(C(N)=O)c(Nc2cccc(C(F)(F)F)c2)n1 [Syk Inhibitor II]
remaining activity at 1.25 µM ([1]; Well no.=2597): 99.7% | remaining activity at 3.75 µM ([2]; Well no.=2597): 101%

CC(C)C(=O)Nc1ccc([N+](=O)[O-])c(C(F)(F)F)c1 [Flutamide]
remaining activity at 1.25 µM ([1]; Well no.=759): 90.8% | remaining activity at 1.25 µM ([1]; Well no.=2130): 93% | remaining activity at 3.75 µM ([2]; Well no.=759): 97.8% | remaining activity at 3.75 µM ([2]; Well no.=2130): 95%

COc1cc2nc(N3CCN(C(=O)C4CCCO4)CC3)nc(N)c2cc1OC (stereo not drawn) [Terazosin hydrochloride]
remaining activity at 1.25 µM ([1]; Well no.=1241): 98.7% | remaining activity at 3.75 µM ([2]; Well no.=1241): 92.5%

CC(=O)OCC(=O)[C@@]1(O)[C@H](C)C[C@H]2[C@@H]3CCC4=CC(=O)C=C[C@]4(C)[C@@]3(F)[C@@H](O)C[C@@]21C [Dexamethasone acetate]
remaining activity at 1.25 µM ([1]; Well no.=5357): 99.3% | remaining activity at 3.75 µM ([2]; Well no.=5357): 98%

C=CCc1ccccc1OCC(O)CNC1(C)CCC(C(C)(C)NC(=O)CBr)CC1 (stereo not drawn) [Bromoacetyl alprenolol menthane]
remaining activity at 1.25 µM ([1]; Well no.=275): 91.4% | remaining activity at 3.75 µM ([2]; Well no.=275): 93.3%

Cc1cccc(-c2[nH]ncc2-c2ccc3ncccc3n2)n1 [RepSox]
remaining activity at 1.25 µM ([1]; Well no.=5490): 96.3% | remaining activity at 3.75 µM ([2]; Well no.=5490): 95.5%

COc1ccccc1N1CCN(CCN(C(=O)C2CCCCC2)c2ccccn2)CC1 [WAY-100635 maleate]
remaining activity at 1.25 µM ([1]; Well no.=1292): 107% | remaining activity at 3.75 µM ([2]; Well no.=1292): 107%

COc1cc2nc(N(C)CCCNC(=O)C3CCCO3)nc(N)c2cc1OC (stereo not drawn) [Alfuzosin]
remaining activity at 1.25 µM ([1]; Well no.=1809): 98.4% | remaining activity at 1.25 µM ([1]; Well no.=6749): 100% | remaining activity at 3.75 µM ([2]; Well no.=1809): 97.8% | remaining activity at 3.75 µM ([2]; Well no.=6749): 92.3%

CC(Cc1ccccc1)(NC(=O)CN)c1ccccc1 (stereo not drawn) [Remacemide hydrochloride]
remaining activity at 1.25 µM ([1]; Well no.=5380): 99% | remaining activity at 3.75 µM ([2]; Well no.=5380): 94.8%

COCCCCCCCCCCCC(=O)O [12-Methoxydodecanoic acid]
remaining activity at 1.25 µM ([1]; Well no.=4262): 96% | remaining activity at 1.25 µM ([1]; Well no.=4359): 101% | remaining activity at 3.75 µM ([2]; Well no.=4262): 94.8% | remaining activity at 3.75 µM ([2]; Well no.=4359): 97.3%

CCCCCCCCCCCCCCCCn1cc[n+](Cc2ccccc2)c1C [eEF-2 Kinase Inhibitor, NH125]
remaining activity at 1.25 µM ([1]; Well no.=2790): 102% | remaining activity at 3.75 µM ([2]; Well no.=2790): 108%

CN1CCN2c3ncccc3Cc3ccccc3C2C1 (stereo not drawn) [Mirtazapine]
remaining activity at 1.25 µM ([1]; Well no.=6564): 106% | remaining activity at 3.75 µM ([2]; Well no.=6564): 106%

COc1cc([C@@H]2c3cc4c(cc3[C@H](O)[C@H]3COC(=O)[C@H]23)OCO4)cc(OC)c1OC [Podophyllotoxin]
remaining activity at 1.25 µM ([1]; Well no.=1002): 91.2% | remaining activity at 1.25 µM ([1]; Well no.=3705): 99.5% | remaining activity at 3.75 µM ([2]; Well no.=1002): 92.3% | remaining activity at 3.75 µM ([2]; Well no.=3705): 105%

CC(C)Oc1ccc(-c2nc(-c3cccc4c3CC[C@@H]4NCCO)no2)cc1C#N [Ozanimod]
remaining activity at 1.25 µM ([1]; Well no.=7422): 104% | remaining activity at 3.75 µM ([2]; Well no.=7422): 106%

CC(C(=O)O)c1ccc2c(c1)CC(=O)c1ccccc1S2 (stereo not drawn) [Zaltoprofen]
remaining activity at 1.25 µM ([1]; Well no.=4879): 96.8% | remaining activity at 3.75 µM ([2]; Well no.=4879): 97.2%

CC(C)(C#N)c1cc(Cn2cncn2)cc(C(C)(C)C#N)c1 [Anastrozole]
remaining activity at 1.25 µM ([1]; Well no.=1858): 101% | remaining activity at 3.75 µM ([2]; Well no.=1858): 102%

O=C(O)c1ncccc1O [3-Hydroxypicolinic acid]
remaining activity at 1.25 µM ([1]; Well no.=6885): 68.8% | remaining activity at 3.75 µM ([2]; Well no.=6885): 92.3%

Cc1cccc(C(C)c2c[nH]cn2)c1C (stereo not drawn) [Medetomidine HCl]
remaining activity at 1.25 µM ([1]; Well no.=4927): 99.2% | remaining activity at 3.75 µM ([2]; Well no.=4927): 100%
